The values below come from EP0333517A2, “Method and agent for inhibiting the binding of human polymorphonuclear leukocytes to endothelium and compositions therefor” (THE ROCKEFELLER UNIVERSITY, priority 1988, dated 1989).

Residues, ends and D or L forms follow the SMILES beside them.

Assay [1] has as its system binding of PMN to endothelial cells. Put plainly: Binding of phorbol dibutyrate-stimulated PMN to endothelial cells (binding assessed by microscopy). The assay is classed as cell-based. The conditions noted are these: indicated doses (Figures 3 and 4, not given); human umbilical cord endothelial cells; 37°C for 15 min. The procedure: This example illustrates that the method of the invention can be used to inhibit the binding of stimulated PMN to human endothelial cells.
The experiments are conducted as follows. Purified human PMN were stimulated for 15 min. with 300 ng/ml of phorbol dibutyrate. This stimulation is necessary to enable PMN to bind, and mimics the stimulation of PMN at sites of inflammation. Endothelial cells were isolated from human umbilical cords by standard methods [Pawlowski et al., Proc. Natl. Aca. Sci., 82, 8202 (1985)] and were cultivated on fibronectin-coated tissue culture surfaces to confluence. […] PMN were washed and combined with the indicated doses of Arg-Leu-Leu-Pro-Gly-Gly-Leu-Gln-Gln-Gly-Arg-Gly- Asp-Ala-Val-Gly-Pro-Glu-Arg-Gly-Cys (Pep63) in Figure 3, or with the indicated doses of Gly-Gln-Gln-His-His-Leu-Gly-Gly-Ala-Lys-Gln-Ala-Gly-Asp-Val (G15) in Figure 4. The cells were then added to the endothelium and incubated at 37°C for 15 min. Unattached PMN were then washed away and the binding was assessed by microscopy.

The test system of assay [2] is binding of PMN to fibrinogen. Put plainly: Binding of phorbol dibutyrate-stimulated PMN to fibrinogen-coated surfaces (adherent cells counted by phase contrast microscopy). The class given is cell-based, human. The conditions noted are these: 2 mg/ml of synthetic peptide; PMN stimulated with 300 ng/ml phorbol dibutyrate; 20 min at 0°C then 30 min at 37°C; Figure 1. How it is done:
This example illustrates that the method of the invention can be used to inhibit binding of stimulated PMN to fibrinogen-coated surfaces. Figure 1 illustrates the level of inhibition of binding by incubation with monoclonal antibodies against CD11b/CD18 and with the peptide L10, and Figure 2 illustrates the dose dependence of this inhibition.
Details of the experiments are as follows. Purified human PMN were stimulated for 15 min. with 300 ng/ml of phorbol dibutyrate. This stimulation is necessary to enable PMN to bind, and mimics the stimulation of PMN at sites of inflammation. Culture wells were coated with fibrinogen or human serum albumin by incubating 1 mg/ml of these proteins with the culture surfaces for 1 hr. at 20°C. The PMN were then washed and added to culture wells coated with fibrinogen in the presence of 10µg/ml of various monoclonal antibodies or 2 mg/ml of synthetic peptides. PMN were allowed to settle onto the surface for 20 min. at 0°C, then were warmed to 37°C for 30 min. The surfaces were then washed and the number of cells adherent were counted by phase contrast microscopy.

`CC(C)C[C@H](NC(=O)[C@H](Cc1c[nH]cn1)NC(=O)[C@H](Cc1c[nH]cn1)NC(=O)[C@H](CCC(N)=O)NC(=O)[C@H](CCC(N)=O)NC(=O)CN)C(=O)NCC(=O)NCC(=O)N[C@@H](C)C(=O)N[C@@H](CCCCN)C(=O)N[C@@H](CCC(N)=O)C(=O)N[C@@H](C)C(=O)NCC(=O)N[C@@H](CC(=O)O)C(=O)N[C@H](C(=O)O)C(C)C` [G15, Gly-Gln-Gln-His-His-Leu-Gly-Gly-Ala-Lys-Gln-Ala-Gly-Asp-Val] (H-GQQHHLGGAKQAGDV-OH): the “inhibition of the binding of PMN to endothelial cells” value in assay [1] is “dose dependence of inhibition”.

As for `CC(C)C[C@H](N)C(=O)NCC(=O)NCC(=O)N[C@@H](C)C(=O)N[C@@H](CCCCN)C(=O)N[C@@H](CCC(N)=O)C(=O)N[C@@H](C)C(=O)NCC(=O)N[C@@H](CC(=O)O)C(=O)N[C@H](C(=O)O)C(C)C` [L10, Leu-Gly-Gly-Ala-Lys-Gln-Ala-Gly-Asp-Val] (H-LGGAKQAGDV-OH), the “binding of PMN to fibrinogen” value in assay [2] was “strongly inhibits binding”.

Regarding `CC(C)C[C@H](NC(=O)CNC(=O)CNC(=O)[C@@H]1CCCN1C(=O)[C@H](CC(C)C)NC(=O)[C@H](CC(C)C)NC(=O)[C@@H](N)CCCNC(=N)N)C(=O)N[C@@H](CCC(N)=O)C(=O)N[C@@H](CCC(N)=O)C(=O)NCC(=O)N[C@@H](CCCNC(=N)N)C(=O)NCC(=O)N[C@@H](CC(=O)O)C(=O)N[C@@H](C)C(=O)N[C@H](C(=O)NCC(=O)N1CCC[C@H]1C(=O)N[C@@H](CCC(=O)O)C(=O)N[C@@H](CCCNC(=N)N)C(=O)NCC(=O)N[C@@H](CS)C(=O)O)C(C)C` [Pep63] (H-RLLPGGLQQGRGDAVGPERGC-OH), the “inhibition of the binding of PMN to endothelial cells” value in assay [1] is listed as “dose dependence of inhibition”.
